#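 Each compound was tested at five concentrations against cells in 96-well plates for 48 hours. Here, GI50 denotes the concentration required for 50% inhibition of growth.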 Calls of active or inactive are those of the source. No stated cut-off is given here; in the data, active = GI50 up to about 1.1 µM and inactive = higher.
# Assays:
# Experiment in all cases: inhibition of tumour cell growth, NCI panel, 48 h
# MCF7 = system: MCF7
# A498 = system: A498
# PC-3 = system: PC-3
# LOX IMVI = system: LOX IMVI
# MDA-N = system: MDA-N
# NCI/ADR-RES = system: NCI/ADR-RES
# SF-295 = system: SF-295
# RPMI-8226 = system: RPMI-8226
# OVCAR-8 = system: OVCAR-8
# T47D = system: T47D
# NCI-H460 = system: NCI-H460
# Hs-578T = system: Hs-578T
# IGROV-1 = system: IGROV-1
# SK-MEL-5 = system: SK-MEL-5
# U-251 = system: U-251
# HCT-116 = system: HCT-116
# 786-0 = system: 786-0
# NCI-H226 = system: NCI-H226
# CCRF-CEM = system: CCRF-CEM
# SF-539 = system: SF-539
# A549 = system: A549
# SW-620 = system: SW-620
# SK-MEL-2 = system: SK-MEL-2
# OVCAR-4 = system: OVCAR-4
# TK-10 = system: TK-10
# HOP-62 = system: HOP-62
# OVCAR-5 = system: OVCAR-5
# SR = system: SR
# HCT-15 = system: HCT-15
# UO-31 = system: UO-31
# CAKI-1 = system: CAKI-1
# UACC-257 = system: UACC-257
# BT-549 = system: BT-549
# COLO 205 = system: COLO 205
# M14 = system: M14
# MOLT-4 = system: MOLT-4
# MDA-MB-231 = system: MDA-MB-231
# SF-268 = system: SF-268
# ACHN = system: ACHN
# MDA-MB-435 = system: MDA-MB-435
# DU-145 = system: DU-145
# SNB-19 = system: SNB-19
# EKVX = system: EKVX
# NCI-H23 = system: NCI-H23
# HOP-92 = system: HOP-92
# HT-29 = system: HT-29
# HCC 2998 = system: HCC 2998
# UACC-62 = system: UACC-62
# K562 = system: K562
# NCI-H522 = system: NCI-H522
# KM12 = system: KM12
# SK-MEL-28 = system: SK-MEL-28
# RXF 393 = system: RXF 393
# SNB-75 = system: SNB-75
# OVCAR-3 = system: OVCAR-3
# HL-60 = system: HL-60
# SK-OV-3 = system: SK-OV-3
# SN12C = system: SN12C
# Malme-3M = system: Malme-3M
smiles,measurement,setting,value
O=C(Cc1ccc(OCc2cccc(Cl)c2)cc1)NO,GI50,MCF7,37.8 µM (inactive)
same,GI50,A498,2.7 µM (inactive)
same,GI50,PC-3,9.18 µM (inactive)
same,GI50,LOX IMVI,11.7 µM (inactive)
same,GI50,MDA-N,58.9 µM (inactive)
same,GI50,NCI/ADR-RES,12.2 µM (inactive)
same,GI50,SF-295,32 µM (inactive)
same,GI50,RPMI-8226,3.77 µM (inactive)
same,GI50,OVCAR-8,11.7 µM (inactive)
same,GI50,T47D,5.74 µM (inactive)
same,GI50,NCI-H460,23.1 µM (inactive)
same,GI50,Hs-578T,30 µM (inactive)
same,GI50,IGROV-1,17.5 µM (inactive)
same,GI50,SK-MEL-5,33.3 µM (inactive)
same,GI50,U-251,28.9 µM (inactive)
same,GI50,HCT-116,24.5 µM (inactive)
same,GI50,786-0,14.7 µM (inactive)
same,GI50,NCI-H226,19.4 µM (inactive)
same,GI50,CCRF-CEM,6.76 µM (inactive)
same,GI50,SF-539,29.6 µM (inactive)
same,GI50,A549,27.5 µM (inactive)
same,GI50,SW-620,31.3 µM (inactive)
same,GI50,SK-MEL-2,21 µM (inactive)
same,GI50,OVCAR-4,15.3 µM (inactive)
same,GI50,TK-10,34.8 µM (inactive)
same,GI50,HOP-62,24.6 µM (inactive)
same,GI50,OVCAR-5,30.3 µM (inactive)
same,GI50,SR,5.81 µM (inactive)
same,GI50,HCT-15,14.1 µM
same,GI50,UO-31,12.8 µM (inactive)
same,GI50,CAKI-1,19.9 µM (inactive)
same,GI50,UACC-257,53.5 µM (inactive)
same,GI50,BT-549,26.2 µM (inactive)
same,GI50,COLO 205,25 µM (inactive)
same,GI50,M14,29.4 µM (inactive)
same,GI50,MOLT-4,2.98 µM (inactive)
same,GI50,MDA-MB-231,41.8 µM (inactive)
same,GI50,SF-268,20 µM (inactive)
same,GI50,ACHN,25.2 µM (inactive)
same,GI50,MDA-MB-435,41.8 µM (inactive)
same,GI50,DU-145,21.5 µM (inactive)
same,GI50,SNB-19,37.2 µM (inactive)
same,GI50,EKVX,25.3 µM (inactive)
same,GI50,NCI-H23,34 µM (inactive)
same,GI50,HOP-92,41 µM (inactive)
same,GI50,HT-29,27 µM (inactive)
same,GI50,HCC 2998,58.7 µM (inactive)
same,GI50,UACC-62,18.7 µM (inactive)
same,GI50,K562,16.1 µM (inactive)
same,GI50,NCI-H522,15.8 µM (inactive)
same,GI50,KM12,27.6 µM (inactive)
same,GI50,SK-MEL-28,32.9 µM (inactive)
same,GI50,RXF 393,26 µM (inactive)
same,GI50,SNB-75,25.8 µM (inactive)
same,GI50,OVCAR-3,22.2 µM (inactive)
same,GI50,HL-60,12.1 µM (inactive)
same,GI50,SK-OV-3,29.8 µM (inactive)
same,GI50,SN12C,27.6 µM (inactive)
FC(F)(F)c1ccc2c(c1)nc(-c1ccc(Cl)cc1)n2CC1CCCN2CCCCC12 (centres undefined),GI50,MCF7,14.5 µM (inactive)
same,GI50,A498,14.2 µM (inactive)
same,GI50,Malme-3M,15.3 µM (inactive)
same,GI50,PC-3,11.6 µM (inactive)
same,GI50,LOX IMVI,14.3 µM (inactive)
same,GI50,MDA-N,15.7 µM (inactive)
same,GI50,NCI/ADR-RES,14.8 µM (inactive)
same,GI50,SF-295,16.7 µM (inactive)
same,GI50,OVCAR-8,15.6 µM (inactive)
same,GI50,T47D,16.7 µM (inactive)
same,GI50,NCI-H460,16.6 µM (inactive)
same,GI50,Hs-578T,14 µM (inactive)
same,GI50,IGROV-1,14.4 µM (inactive)
same,GI50,SK-MEL-5,14 µM (inactive)
same,GI50,U-251,14.2 µM (inactive)
same,GI50,HCT-116,14.3 µM (inactive)
same,GI50,786-0,13.8 µM (inactive)
same,GI50,NCI-H226,14.8 µM (inactive)
same,GI50,CCRF-CEM,10.8 µM (inactive)
same,GI50,SF-539,14.8 µM (inactive)
same,GI50,A549,14.8 µM (inactive)
same,GI50,SW-620,18.5 µM (inactive)
same,GI50,SK-MEL-2,15.9 µM (inactive)
same,GI50,OVCAR-4,15.8 µM (inactive)
same,GI50,TK-10,14.9 µM (inactive)
same,GI50,HOP-62,13.9 µM (inactive)
same,GI50,OVCAR-5,6.41 µM (inactive)
same,GI50,SR,11.9 µM (inactive)
same,GI50,HCT-15,14.4 µM
same,GI50,UO-31,10.7 µM (inactive)
same,GI50,CAKI-1,17.1 µM (inactive)
same,GI50,UACC-257,14.9 µM (inactive)
same,GI50,BT-549,14.4 µM (inactive)
same,GI50,COLO 205,11.6 µM (inactive)
same,GI50,M14,14 µM (inactive)
same,GI50,MOLT-4,0.233 µM (active)
same,GI50,MDA-MB-231,7.33 µM (inactive)
same,GI50,SF-268,14 µM (inactive)
same,GI50,ACHN,14.8 µM (inactive)
same,GI50,MDA-MB-435,16.9 µM (inactive)
same,GI50,DU-145,14.9 µM (inactive)
same,GI50,SNB-19,17.1 µM (inactive)
same,GI50,EKVX,9.91 µM (inactive)
same,GI50,HOP-92,12.8 µM (inactive)
same,GI50,HT-29,4.98 µM (inactive)
same,GI50,HCC 2998,13.5 µM (inactive)
same,GI50,UACC-62,14.8 µM (inactive)
same,GI50,NCI-H522,13.2 µM (inactive)
same,GI50,KM12,15.8 µM (inactive)
same,GI50,SK-MEL-28,14.9 µM (inactive)
same,GI50,RXF 393,13.9 µM (inactive)
same,GI50,SNB-75,6.84 µM (inactive)
same,GI50,OVCAR-3,18.4 µM (inactive)
same,GI50,HL-60,11.8 µM (inactive)
same,GI50,SK-OV-3,6.7 µM (inactive)
same,GI50,SN12C,12.9 µM (inactive)
